Measurements as given in patent US20240228488A1 (TAKEDA PHARMACEUTICAL COMPANY LIMITED, priority 2021, published 2024).

Experiments:
[1] = molecular target: human activated kallikrein enzyme (Homo sapiens, UniProt P03952); assay: Plasma kallikrein inhibition, fluorogenic PFR-AMC substrate, 500 pM activated kallikrein format; assay type: biochemical; conditions: 500 pM activated kallikrein, 300 uM PFR-AMC, 30 min preincubation, 10 min reaction; read-out: Primary Dose Response Assay: Average EC50
Sequence of human activated kallikrein enzyme (P03952 391-638 limits assumed): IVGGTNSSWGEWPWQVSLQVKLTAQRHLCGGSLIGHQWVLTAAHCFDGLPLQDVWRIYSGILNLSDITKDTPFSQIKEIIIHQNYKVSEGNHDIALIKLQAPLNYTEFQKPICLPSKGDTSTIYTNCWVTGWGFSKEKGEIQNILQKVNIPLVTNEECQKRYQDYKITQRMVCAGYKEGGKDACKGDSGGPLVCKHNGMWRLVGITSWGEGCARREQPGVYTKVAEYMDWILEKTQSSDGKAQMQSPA
Sequence of human activated kallikrein enzyme (P03952 20-390 partner limits assumed): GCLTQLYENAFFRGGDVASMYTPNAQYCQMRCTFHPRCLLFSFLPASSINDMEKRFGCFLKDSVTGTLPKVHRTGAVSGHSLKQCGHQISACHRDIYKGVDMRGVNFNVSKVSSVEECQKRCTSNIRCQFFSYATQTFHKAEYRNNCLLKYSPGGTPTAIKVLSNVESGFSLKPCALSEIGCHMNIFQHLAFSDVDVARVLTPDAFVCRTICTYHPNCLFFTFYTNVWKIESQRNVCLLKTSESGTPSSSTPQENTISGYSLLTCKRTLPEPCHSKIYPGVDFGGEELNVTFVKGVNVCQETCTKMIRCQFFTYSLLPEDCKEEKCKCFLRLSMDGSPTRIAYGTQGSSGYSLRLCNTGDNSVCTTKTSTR
Method in brief: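 Fluorogenic readout (ex 380 / em 460 nm) after 10 min room-temperature reaction with 300 uM Pro-Phe-Arg-AMC substrate, following 30 min preincubation of inhibitors with 500 pM enzyme. Buffer: Tris pH 7.5, EDTA, NaCl, PEG-400, Triton X-100. Values given as EC50 ranges.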

plasma kallikrein = molecular target: T1, plasma kallikrein (Homo sapiens, UniProt P03952); assay: Neat human plasma assay, FXIIa contact pathway-activated, PFR-AMC substrate; assay type: biochemical; conditions: citrated human plasma 78% final, 10 nM human FXIIa, 100 μM PFR-AMC; read-out: Human Plasma Assay: IC90
T1 construct: from tissue
T1 sequence (P03952 391-638 limits assumed): as the sequence (P03952 391-638 limits assumed) above
T1 sequence (P03952 20-390 partner limits assumed): as the sequence (P03952 20-390 partner limits assumed) above
Method in brief: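 Compound inhibition of plasma kallikrein measured as PFR-AMC (100 μM) cleavage rate over 5 min at room temperature in 78% citrated human plasma activated with 10 nM FXIIa (Tris pH 7.5 buffer). IC50/IC90 from 4-parameter fit of rate versus inhibitor concentration.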

Row | EC50 [1] | IC90 (plasma kallikrein) | Compound
1 | < 1 nM | < 400 nM | Cc1ccnc([C@H]2C[C@@H]2C(=O)Nc2cc(NCc3cn4cc(C5CC5)cc(N5CC(=O)N(C)C5=O)c4n3)nc(C3CC3)n2)n1 [Example 410, (1S,2S)-N-(2-cyclopropyl-6-(((6-cyclopropyl-8-(3-methyl-2,4-dioxoimidazolidin-1-yl)imidazo[1,2-a]pyridin-2-yl)methyl)amino)pyrimidin-4-yl)-2-(4-methylpyrimidin-2-yl)cyclopropane-1-carboxamide]
2 | < 1 nM | < 400 nM | Cc1ccnc([C@H]2C[C@@H]2C(=O)Nc2cc(NCc3cn4cc(C5CC5)cc(N5CC6(COC6)OC5=O)c4n3)ncn2)n1 [Example 372, (1S,2S)-N-(6-(((6-cyclopropyl-8-(6-oxo-2,5-dioxa-7-azaspiro[3.4]octan-7-yl)imidazo[1,2-a]pyridin-2-yl)methyl)amino)pyrimidin-4-yl)-2-(4-methylpyrimidin-2-yl)cyclopropane-1-carboxamide]
3 | 1 to 10 nM | 1500 to 10000 nM | CCOC(=O)CCc1cc(C2CC2)cn2cc(CNc3ccnc(NC(=O)[C@H]4C[C@@H]4c4cccc(Cl)c4)c3)nc12 [Example I-240, ethyl 3-(2-(((2-((1S,2S)-2-(3-chlorophenyl)cyclopropane-1-carboxamido)pyridin-4-yl)amino)methyl)-6-cyclopropylimidazo[1,2-a]pyridin-8-yl)propanoate]
4 | < 1 nM | < 400 nM | Cc1ccnc([C@H]2C[C@@H]2C(=O)Nc2cc(OCc3cn4cc(C5CC5)cc(N5CC(=O)N(C)C5=O)c4n3)nc(OCCN(C)C)n2)n1 [Example 563, (1S,2S)—N-(6-((6-cyclopropyl-8-(3-methyl-2,4-dioxoimidazolidin-1-yl)imidazo[1,2-a]pyridin-2-yl)methoxy)-2-(2-(dimethylamino)ethoxy)pyrimidin-4-yl)-2-(4-methylpyrimidin-2-yl)cyclopropane-1-carboxamide]
5 | 1 to 10 nM | 1500 to 10000 nM | O=C(Nc1cc(NCc2cn3cc(C4CC4)ccc3n2)cc(CCN2CCOCC2)n1)[C@H]1C[C@@H]1c1cccc(Cl)c1 [Example 341, (1S,2S)-2-(3-chlorophenyl)-N-(4-(((6-cyclopropylimidazo[1,2-a]pyridin-2-yl)methyl)amino)-6-(2-morpholinoethyl)pyridin-2-yl)cyclopropane-1-carboxamide]
6 | 1 to 10 nM | 10000 to 48000 nM | COCc1nc(NCc2cn3cc(C4CC4)ccc3n2)cc(NC(=O)[C@@H]2C[C@H]2c2cccc(Cl)c2)n1 (racemic) [Example 108, rac-(1S*,2S*)-2-(3-chlorophenyl)-N-(6-(((6-cyclopropylimidazo[1,2-a]pyridin-2-yl)methyl)amino)-2-(methoxymethyl)pyrimidin-4-yl)cyclopropane-1-carboxamide]
7 | < 1 nM | < 400 nM | O=C(Nc1cc(NCc2cn3cc(C4CC4)cc(N4CNCC4=O)c3n2)ncn1)[C@H]1C[C@@H]1c1cccc(Cl)c1 [Example I-19, (1S,2S)-2-(3-chlorophenyl)-N-(6-(((6-cyclopropyl-8-(5-oxoimidazolidin-1-yl)imidazo[1,2-a]pyridin-2-yl)methyl)amino)pyrimidin-4-yl)cyclopropane-1-carboxamide]
8 | < 1 nM | < 400 nM | Cc1ccnc([C@H]2C[C@@H]2C(=O)Nc2cc(OCc3cn4cc(C5CC5)cc(S(C)(=O)=O)c4n3)cnn2)n1 [Example 561, (1S,2S)-N-(5-((6-cyclopropyl-8-(methylsulfonyl)imidazo[1,2-a]pyridin-2-yl)methoxy)pyridazin-3-yl)-2-(4-methylpyrimidin-2-yl)cyclopropane-1-carboxamide]
9 | < 1 nM | 400 to 1500 nM | Cc1ccnc([C@H]2C[C@@H]2C(=O)Nc2cc(OC(C)c3cn4cc(C5CC5)cc(N5CC(=O)N(C)C5=O)c4n3)ncn2)n1 (stereo partly drawn) [Example 549, (1S,2S)—N-(6-(1-(6-cyclopropyl-8-(3-methyl-2,4-dioxoimidazolidin-1-yl)imidazo[1,2-a]pyridin-2-yl)ethoxy)pyrimidin-4-yl)-2-(4-methylpyrimidin-2-yl)cyclopropane-1-carboxamide]
